Drawing on US8629168B2, “Benzoxazoles and oxazolopyridines being useful as janus kinases inhibitors” (priority 2006, dated 2014), this text covers IC50 for 13 compounds.

The experiment concerns the target T1, GST-JAK2(808-1132) (Homo sapiens, UniProt O60674).
T1 construct: GST-JAK2(808-1132) is purchased from Invitrogen; purchased Invitrogen (Carlsbad, USA) #4288
Put plainly: EPK JAK/TYK-kinase family profiling assay (Caliper mobility shift), JAK2. Particulars: Caliper mobility shift assay of Example 187, 20 μM ATP, read-out: IC50 with Test in present Example. Type of experiment: biochemical. An excerpt:
All four kinases of the JAK/TYK-kinase family are used as purified recombinant GST-fusion proteins, containing the active kinase domains. GST-JAK1(866-1154), GST-JAK3(811-1124), and GST-TYK2(888-1187) are expressed and purified by affinity chromatography. GST-JAK2(808-1132) is purchased from Invitrogen (Carlsbad, USA, #4288).
The kinase assays are based on the Caliper mobility shift assay using the LabChip 3000 systems. This technology is similar to capillary electrophoresis and uses charge driven separation of substrate and product in a microfluidic chip.
All kinase reactions are performed in 384 well microtiter plates in a total reaction volume of 18 μl. The assay plates are prepared with 0.1 μl per well of test compound in the appropriate test concentration, as described under the section “preparation of compound dilutions”. The reactions are started by combining 9 μl of substrate mix (consisting of peptide and ATP) with 9 μl of kinase dilution. The reactions are incubated for 60 minutes at 30° C. and stopped by adding 70 μl of stop buffer (100 mM Hepes, 5% DMSO, 0.1% Coating reagent, 10 mM EDTA, 0.015% Brij 35).
Fluorescently labeled synthetic peptides are used as substrates in all reactions. […] Specific assay conditions are described in Table 1:
The terminated reactions are transferred to a Caliper LabChip 3000 reader (Caliper Life Sciences, Mountain View, Calif., USA) and the turnover of each reaction is measured by determining the substrate/product ratio.
Test compounds are dissolved in DMSO (10 mM) and transferred into 1.4 mL flat bottom or V-shaped Matrix tubes carrying a unique 2D matrix chip by individual compound hubs. The numbers of these chips are distinctively linked to the individual compound identification numbers. The stock solutions are stored at −20° C. if not used immediately. For the test procedure the vials are defrosted and identified by a scanner whereby a working sheet is generated that guides the subsequent working steps.
Compound dilutions are made in 96 well plates. This format enabled the assay of maximally 40 individual test compounds at 8 concentrations (single points) including 4 reference compounds. The dilution protocol includes the production of pre-dilution plates, master plates and assay plates:
Pre-dilution plates: 96 polypropylene well plates are used as pre-dilution plates. A total of 4 pre-dilution plates are prepared including 10 test compounds each on the plate positions A1-A10, one standard compound at A11 and one DMSO control at A12. All dilution steps are done on a Hamilton STAR robot (Hamilton, Co., Reno, Nev., USA).
Master plates: 100 μL of individual compound dilutions including standard compound and controls of the 4 “pre-dilution plates” are transferred into a 384 “master plate” including the following concentrations 1,820, […], 182, 54.6, 18.2, 5.46, 1.82 and 0.546 μM, respectively in 90% of DMSO.
Assay plates: Identical assay plates are then prepared by pipetting 100 nL each of compound dilutions of the master plates into 384-well “assay plates”. In the following the compounds are mixed with 9 μL of assays components plus 9 μL enzyme corresponding to a 1:181 dilution steps enabling the final concentration of 10, 3.0, 1.0, 0.3, 0.1, 0.03, 0.01 and 0.003 μM, respectively. The preparation of the master plates are handled by the Matrix PlateMate Plus robot (Thermo Fisher Scientific, Handforth, Cheshire, United Kingdom) and replication of assay plates by the HummingBird robot (Genomic Solutions, Inc., Ann Arbor, Mich., USA).

T1 sequence (O60674 808-1132): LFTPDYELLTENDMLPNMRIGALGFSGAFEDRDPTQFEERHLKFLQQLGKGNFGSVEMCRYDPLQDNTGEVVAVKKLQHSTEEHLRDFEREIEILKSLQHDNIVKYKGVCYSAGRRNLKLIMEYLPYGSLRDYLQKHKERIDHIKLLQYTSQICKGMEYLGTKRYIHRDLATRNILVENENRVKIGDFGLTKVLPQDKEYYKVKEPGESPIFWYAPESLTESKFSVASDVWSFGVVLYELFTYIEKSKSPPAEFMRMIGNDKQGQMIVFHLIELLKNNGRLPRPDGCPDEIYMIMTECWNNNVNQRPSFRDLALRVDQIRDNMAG

As to `CCN1CCN(Cc2ccc(Nc3nc4cccc(-c5ccc(C(=O)N6CCOCC6)c(F)c5)c4o3)cc2C)CC1` [Example 119, (4-{2-[4-(4-Ethyl-piperazin-1-ylmethyl)-3-methyl-phenylamino]-benzooxazol-7-yl}-2-fluoro-phenyl)-morpholin-4-yl-methanone], the half-inhibitory concentration (IC50) is 19.5 nM.

Take `Cc1cc(Nc2nc3cccc(-c4ccc(CC(=O)N5CCOCC5)c(F)c4)c3o2)ccc1C(=O)N1CCN(C)CC1` [Example 73, 2-(2-Fluoro-4-{2-[3-methyl-4-(4-methyl-piperazine-1-carbonyl)-phenylamino]-benzooxazol-7-yl}-phenyl)-1-morpholin-4-yl-ethanone]: the IC50 stood at 5.15 nM.

Turning to `Cc1cc(Nc2nc3cccc(-c4ccc(CN5CCS(=O)(=O)CC5)cc4)c3o2)ccc1C(=O)N(C)C` [Example 79, 4-{7-[4-(1,1-Dioxo-1lambda*6*-thiomorpholin-4-ylmethyl)-phenyl]-benzooxazol-2-ylamino}-2,N,N-trimethyl-benzamide], the half-inhibitory concentration (IC50) was < 3 nM.

For the compound `Cc1cc(Nc2nc3cccc(-c4ccc(C[S+](C)[O-])cc4)c3o2)ccc1C(=O)N(C)C` (stereo not shown) [Example 81, 4-[7-(4-Methanesulfinylmethyl-phenyl)-benzooxazol-2-ylamino]-2,N,N-trimethyl-benzamide], the IC50 came out at 17 nM.

In the case of `Cc1cc(Nc2nc3cccc(-c4ccc(CC(=O)N5CCOCC5)cc4)c3o2)ccc1C(=O)N1CCN(C)CC1` [Example 72, 2-(4-{2-[3-Methyl-4-(4-methyl-piperazine-1-carbonyl)-phenylamino]-benzooxazol-7-yl}-phenyl)-1-morpholin-4-yl-ethanone], the IC50 stood at 17 nM.

Turning to `COc1cc(Nc2nc3cccc(-c4ccc(CN5CCN(C)CC5)cc4)c3o2)cc(OC)c1OC` [Example 137], the IC50 turned out to be 160 nM.

Consider `Cc1cc(-c2cccc3nc(Nc4ccc(N5CCN(C6CC6)CC5)cc4)oc23)ccc1C(=O)N1CCOCC1` [Example 97, (4-{2-[4-(4-Cyclopropyl-piperazin-1-yl)-phenylamino]-benzooxazol-7-yl}-2-methyl-phenyl)-morpholin-4-yl-methanone], for which the 50% inhibitory concentration (IC50) came to 21.5 nM.

For the compound `CN1CCN(c2ccc(Nc3nc4cccc(-c5ccc(C(C)(C)C(=O)N6CCOCC6)cc5)c4o3)cc2)CC1` [Example 151, 2-Methyl-2-(4-{2-[4-(4-methyl-piperazin-1-yl)-phenylamino]-benzooxazol-7-yl}-phenyl)-1-morpholin-4-yl-propan-1-one], the IC50 is 27.5 nM.

With `Cc1cc(-c2cccc3nc(Nc4cccc(N5CCN(C)CC5)c4)oc23)ccc1C(=O)N1CCOCC1` [Example 129, (2-Methyl-4-{2-[3-(4-methyl-piperazin-1-yl)-phenylamino]-benzooxazol-7-yl}-phenyl)-morpholin-4-yl-methanone], the half-maximal inhibitory concentration (IC50) stood at 45 nM.

On to `COc1cc(Nc2nc3cccc(-c4ccc(Cn5ccnc5)cc4)c3o2)cc(OC)c1OC` [Example 136, [7-(4-Imidazol-1-ylmethyl-phenyl)-benzooxazol-2-yl]-(3,4,5-trimethoxy-phenyl)-amine], for which the half-maximal inhibitory concentration (IC50) came out at 18 nM.

Consider `COCCN1CCN(c2ccc(Nc3nc4cccc(-c5ccc(S(C)(=O)=O)cc5)c4o3)cc2C)CC1` [Example 115, [7-(4-Methanesulfonyl-phenyl)-benzooxazol-2-yl]-{4-[4-(2-methoxy-ethyl)-piperazin-1-yl]-3-methyl-phenyl}-amine], for which the IC50 worked out at 39 nM.

`COc1cc(Nc2nc3cccc(-c4ccc(CO)cc4)c3o2)cc(OC)c1OC` [Example 143, {4-[2-(3,4,5-Trimethoxy-phenylamino)-benzooxazol-7-yl]-phenyl}-methanol]: the IC50 came to 16.5 nM.

In the case of `CCN(CC)C(=O)c1ccc(Nc2nc3cccc(-c4cc(F)c(CN5CCNCC5)c(F)c4)c3o2)cc1C` [Example 118, 4-[7-(3,5-Difluoro-4-piperazin-1-ylmethyl-phenyl)-benzooxazol-2-ylamino]-N,N-diethyl-2-methyl-benzamide], the IC50 was found to be 43 nM.

As usually defined, the IC50 is the concentration that inhibits the measured activity by half.
